Values of other authors, collected in patent US9682063B2, “HCD formulation for cancer treatment” (National Dong Hwa University, priority 2015, dated 2017).

What was measured:
CML K562 cells = conditions: background statement
[1] = background statement

water solubility [1]: poor water solubility
SMILES: CC1=CCCC2C1(C)CCC(C)C2(C)CCC1=CC(=O)OC1O (centres unmarked) [HCD, 16-Hydroxycleroda-3,13-dien-15,16-olide]
apoptosis in CML K562 cells (CML K562 cells): induces apoptosis in CML K562 cells
